Reference: patent publication US5808139A (Ligand Pharmaceuticals Incorporated, priority 1994, dated 1998)
Entries after “also recorded” stand apart in the source; their conditions may differ.

Legend:
T47D cells = assay: Alkaline phosphatase activity in T47D cells (induction and its inhibition); format: cell-based, human; conditions: for Agonist activity, alkaline phosphatase induction: ligand alone, three days
Excerpt: The functional activities of the cyclocymopol analogues in the human breast cell line, T47D, were also investigated. T47D cells have proven to be a particularly useful model to investigate the molecular actions of sex steroids because they contain endogenous functional receptors for, and respond to, progestins, and their respective antagonists. Moreover, these cells contain exceptionally high titers of progesterone receptors and are exquisitely sensitive to the actions of progestins in a manner quite similar to their actions in normal and neoplastic mammary epithelial cells. In T47D cells, progestins induce de novo synthesis of a plasma-associated alkaline phosphatase, which has been reported to be similar, if not identical, to the alkaline phosphatase present in the normal breast and human milk. These tests were conducted according to the following illustrative example. […] For routine induction of alkaline phosphatase, cells were treated for three days with two media changes and harvested as described below. […] Nuclei were sedimented at 2500 rpm, and the supernatant was saved as cytosol. The protein content of the cytosol was assayed by the method of Bradford. Alkaline phosphatase activity was determined by incubating one volume of cell extract with three volumes of 1 mg/ml p-nitrophenol phosphate prepared in DEAM (1M diethanolamine, pH=9, containing 2 mM magnesium chloride) at room temperature for 20 min. At the end of the incubation time, the reaction was stopped with an equal volume of 1N NaOH. Ten standards of p-nitrophenol were prepared in DEAM buffer and absorbance was read at 405 nm. Alkaline phosphatase activity is expressed as pmol p-nitrophenol formed/min/mg protein.

glucocorticoid receptor = target: T1, glucocorticoid receptor (Homo sapiens, UniProt P04150); assay: Cross-reactivity, glucocorticoid receptor activation (agonist and antagonist); format: cell-based
T1 sequence (P04150 1-777): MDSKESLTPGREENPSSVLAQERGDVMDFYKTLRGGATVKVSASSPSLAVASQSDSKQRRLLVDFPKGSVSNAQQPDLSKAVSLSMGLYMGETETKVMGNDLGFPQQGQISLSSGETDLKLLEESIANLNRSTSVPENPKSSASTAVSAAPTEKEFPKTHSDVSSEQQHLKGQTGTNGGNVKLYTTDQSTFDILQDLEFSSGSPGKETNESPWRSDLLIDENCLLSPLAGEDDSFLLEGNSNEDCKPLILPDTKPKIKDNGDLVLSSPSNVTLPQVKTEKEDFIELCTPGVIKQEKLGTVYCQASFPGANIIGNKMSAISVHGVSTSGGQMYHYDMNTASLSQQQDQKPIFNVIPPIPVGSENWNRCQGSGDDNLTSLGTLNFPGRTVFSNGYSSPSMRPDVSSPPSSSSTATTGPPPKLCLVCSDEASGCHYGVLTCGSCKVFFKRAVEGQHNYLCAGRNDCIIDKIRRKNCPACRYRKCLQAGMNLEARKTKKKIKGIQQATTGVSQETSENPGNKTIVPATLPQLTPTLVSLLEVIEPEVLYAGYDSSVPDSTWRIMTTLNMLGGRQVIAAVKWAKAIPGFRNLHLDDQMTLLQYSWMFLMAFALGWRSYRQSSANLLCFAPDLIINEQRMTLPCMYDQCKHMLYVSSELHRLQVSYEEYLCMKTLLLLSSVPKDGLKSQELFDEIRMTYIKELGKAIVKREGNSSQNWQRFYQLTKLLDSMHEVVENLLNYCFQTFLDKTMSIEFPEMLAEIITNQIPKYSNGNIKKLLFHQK
Excerpt: This assay is described in further detail in U.S. Pat. Nos. 4,981,784 and 5,071,773, which are incorporated herein by reference. The co-transfection assay provides a method for identifying functional ligands (either agonists which mimic, or antagonists which inhibit, the effect of hormones) for ligand-responsive receptor proteins.
The co-transfection assay provides a mechanism to evaluate ability of a compound to function as an agonist or antagonist of the activity modulated by an intracellular receptor. The co-transfection assay mimics an in vivo system in the laboratory. In the co-transfection assay, a cloned gene for an intracellular receptor is introduced by transfection (a procedure to induce cells to take up foreign genes) into a background cell substantially devoid of endogenous intracellular receptors. This introduced gene directs the recipient cells to make the intracellular receptor protein. A second gene is also introduced (co-transfected) into the same cells in conjunction with the intracellular receptor gene. This second gene functions as a reporter for the transcription-modulating activity of the target intracellular receptor. The reporter acts as a surrogate for the products normally expressed by a gene under control of the target receptor and its natural hormone.
A preferred reporter gene is one which expresses the firefly enzyme luciferase. The co-transfection assay can detect small molecule agonists or antagonists of target intracellular receptors. Exposing the cells to an agonist ligand increases reporter activity in the transfected cells that can be conveniently measured, reflecting ligand-dependent, intracellular receptor-mediated increases in reporter transcription. To detect antagonists, the co-transfection assay is carried out in the presence of a constant concentration of an agonist known to induce a defined reporter signal. […]
Co-transfected cells are exposed to a medium to which is added the potential ligand that is being evaluated. […] Antagonist activity is evaluated by adding the candidate ligand and a known agonist to the co-transfected cells. […]

| SMILES | Inhibition of alkaline phosphatase induced by SO-54 and SO-51 (T47D cells; induction by SO-54 or SO-51, FIG. 11) | Agonist/antagonist activity with glucocorticoid receptor (glucocorticoid receptor) | Agonist activity, alkaline phosphatase induction (T47D cells) | Inhibition of progesterone-stimulated alkaline phosphatase activity (T47D cells; 1.0 nM progesterone) | Inhibition of R5020-induced alkaline phosphatase activity (T47D cells; R5020-induced) |
| --- | --- | --- | --- | --- | --- |
| CC#C[C@]1(O)CC[C@H]2[C@@H]3CCC4=CC(=O)CCC4=C3[C@@H](c3ccc(N(C)C)cc3)C[C@@]21C [RU-486, reference compound] | blocked | significant activity | – | – | – |
| C=C1CC[C@@H](Br)C(C)(C)[C@@H]1Cc1cc(OC)c(Br)cc1OC(C)=O [SO-52] | – | slight agonist activity | very weak agonists | – | – |
| C=C1CC[C@@H](Br)C(C)(C)[C@@H]1Cc1cc(OC)c(Br)cc1O [SO-53, (3R)-cyclocymopol monomethyl ether] | – | neither agonist nor antagonist activity | very weak agonists | attenuated this induction in a concentration-dependent manner; also recorded: attenuated the effects of progesterone in a concentration-dependant manner | effective antagonist of the progesterone mimic |
